Laboratory results reported in US7514419B2, “Phosphorus-containing thyromimetics” (Metabasis Therapeutics, Inc., priority 2003, dated 2009).

Assays:
[1] = test system: Hypercholesterolemic rats; test: Cholesterol lowering in hypercholesterolemic rats; assay type: in vivo, rat; conditions: for change in vivo at 0.2 mg/kg/day / change in vivo at 0.5 mg/kg/day: Rattus norvegicus, percentage change from pre-dose cholesterol; for cholesterol lowering: 0.5 mg/kg/d orally; for change in vivo at 0.5 mg/kg/day: delivered p.o. (0.5 mg/kg/d)
ZDF rats = conditions: rat, in vivo, 28 days
Protocol: Compound 18 was administered at doses up to 5 mg/kg/d. Compound cis-13-1 was administered at doses up to 50 mg/kg/d. We reasoned that the ZDF rat, as a metabolically challenged animal model, would be more sensitive to the potential adverse cardiac effects of thyromimetics than a normal, cholesterol-fed rat. At sacrifice, heart rate, and the first derivative of left ventricular pressure (LV dP/dt) were measured with a Millar catheter inserted into the left ventricle.

Sprague Dawley (SD) rat = test: Cardiovascular activity in the Sprague Dawley rat, 7 days oral; assay type: in vivo; conditions: SD rats, Compound 18 1 mg/kg, Compound cis-13-1 1-50 mg/kg/day
Text: Method: […] The control group (n=6) was given vehicle only. […] On the 7th day after the start of dosing, animals were anesthetized with Isofluorane and the left ventricle cannulated with a high fidelity catheter tip transducer via the right carotid artery. Left ventricular pressure, its first derivative (LVdP/dt), lead I ECG, and heart rate (HR) triggered off the ECG waveform, were digitally recorded. LV dP/dt is a well accepted measure of ionotropic state. Systolic and diastolic aortic pressures were measured by retracting the catheter into the proximal aorta.

[2] = test system: normal rats maintained on a cholesterol-containing diet; test: Continuous infusion study in rats on a cholesterol-containing diet; conditions: continuous infusion 1 mg/kg/day; for cardiovascular parameters (heart rate, LV dP/dt, blood pressure): day 7 or day 14
Protocol: Screening for thyromimetic activity was performed in normal rats maintained on a cholesterol-containing diet.

cholesterol-fed rat = test: Subacute study in cholesterol-fed rats, IP once-a-day for seven days: serum cholesterol, heart weight, heart mGPDH; conditions: cholesterol-fed rats, IP 7 days; Compound 17 at 0.1-1 mg/kg/day
Protocol: The cholesterol-fed rat is an animal model of hypercholesterolemia generated by feeding the animals a diet with high cholesterol content.
Methods: Rats were maintained on a diet containing 1.5% cholesterol and 0.5% cholic acid for 2 weeks prior to initiation of treatment. Serum cholesterol values were assessed and the animals randomized into groups for treatment.

[3] = molecular target: T1, human thyroid hormone receptors TRα1 (Homo sapiens, UniProt P10827); test: Receptor binding: labeled T3 binding/displacement, gel filtration and scintillation proximity assay (SPA); conditions: read-out: Ki TRα
T1 sequence (P10827 1-410 isoform P10827-2): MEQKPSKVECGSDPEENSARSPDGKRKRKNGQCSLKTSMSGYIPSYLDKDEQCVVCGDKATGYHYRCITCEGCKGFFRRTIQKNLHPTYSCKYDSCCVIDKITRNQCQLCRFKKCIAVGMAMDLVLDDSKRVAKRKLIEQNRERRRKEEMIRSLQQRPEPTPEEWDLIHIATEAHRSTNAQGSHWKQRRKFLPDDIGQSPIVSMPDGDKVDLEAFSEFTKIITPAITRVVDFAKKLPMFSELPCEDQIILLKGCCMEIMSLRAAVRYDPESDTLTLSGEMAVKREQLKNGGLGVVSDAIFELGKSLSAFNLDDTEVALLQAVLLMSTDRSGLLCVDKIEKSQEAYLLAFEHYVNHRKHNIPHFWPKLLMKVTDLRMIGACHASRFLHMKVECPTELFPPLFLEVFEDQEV
T1 sequence (P19793 1-462 partner): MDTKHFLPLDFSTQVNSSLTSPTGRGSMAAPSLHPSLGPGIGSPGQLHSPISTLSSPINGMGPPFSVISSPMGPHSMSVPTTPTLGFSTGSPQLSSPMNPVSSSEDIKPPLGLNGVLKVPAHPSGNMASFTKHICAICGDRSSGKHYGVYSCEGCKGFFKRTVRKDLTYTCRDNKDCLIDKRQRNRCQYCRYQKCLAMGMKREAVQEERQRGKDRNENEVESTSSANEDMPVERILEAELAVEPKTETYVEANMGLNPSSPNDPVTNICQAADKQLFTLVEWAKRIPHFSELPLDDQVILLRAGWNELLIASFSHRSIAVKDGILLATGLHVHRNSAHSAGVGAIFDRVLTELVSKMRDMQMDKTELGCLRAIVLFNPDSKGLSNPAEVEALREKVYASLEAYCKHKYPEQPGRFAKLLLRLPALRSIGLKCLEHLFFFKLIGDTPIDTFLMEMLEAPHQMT

[4] = molecular target: T2, human thyroid hormone receptors TRβ1 (Homo sapiens, UniProt P10828); test: as above; conditions: read-out: Ki TRβ
T2 sequence (P10828 1-461): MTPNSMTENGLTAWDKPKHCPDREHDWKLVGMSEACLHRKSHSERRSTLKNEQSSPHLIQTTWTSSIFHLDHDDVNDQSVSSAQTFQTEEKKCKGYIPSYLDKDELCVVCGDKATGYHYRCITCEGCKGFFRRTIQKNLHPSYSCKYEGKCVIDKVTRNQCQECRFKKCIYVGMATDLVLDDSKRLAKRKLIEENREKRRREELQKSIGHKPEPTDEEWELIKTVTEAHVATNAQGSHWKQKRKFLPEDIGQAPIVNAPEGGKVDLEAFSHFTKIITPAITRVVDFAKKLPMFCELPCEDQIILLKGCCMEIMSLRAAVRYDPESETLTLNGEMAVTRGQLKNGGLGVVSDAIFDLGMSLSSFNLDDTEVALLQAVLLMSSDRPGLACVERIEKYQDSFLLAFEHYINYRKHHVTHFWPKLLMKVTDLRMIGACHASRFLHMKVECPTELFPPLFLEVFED
T2 sequence (P19793 1-462 partner): T1 sequence (P19793 1-462 partner)

Structure (SMILES): CC(C)c1cc(Cc2c(Cl)cc(OCP(=O)(O)O)cc2Cl)ccc1O [Compound 7-5, [3,5-dichloro-4-(4′-hydroxy-3′-iso-propylbenzyl)phenoxy] methylphosphonic acid]
- change in vivo at 0.2 mg/kg/day ([1]; ip, delivered i.p (0.2 mg/kg/d)): -63.3%
- change in vivo at 0.2 mg/kg/day ([1]; po, delivered p.o. (0.2 mg/kg/d)): -38%

Structure (SMILES): CC(C)c1cc(Oc2c(Br)cc(CP(=O)(OCOC(=O)C(C)(C)C)OCOC(=O)C(C)(C)C)cc2Br)ccc1O [Compound 12-5, Di-(pivaloyloxymethyl)[3,5-dibromo-4-(4′-hydroxy-3′-iso-propylphenoxy)benzyl] phosphonate]
- cholesterol lowering [1]: significant lowering of cholesterol

Structure (SMILES): CC(C)c1cc(Oc2c(I)cc(OCP(=O)(OCOC(=O)C(C)(C)C)OCOC(=O)C(C)(C)C)cc2I)ccc1O [Compound 12-7, Di(pivaloyloxymethyl)[3,5-diiodo-4-(4′-hydroxy-3′-iso-propylphenoxy)phenoxy]methylphosphonate]
- change in vivo at 0.5 mg/kg/day ([1]; po): -39.1%

Structure (SMILES): Cc1cc(OC[P@@]2(=O)OCC[C@@H](c3cccc(Cl)c3)O2)cc(C)c1Cc1ccc(O)c(C(C)C)c1 [Compound 13-1-cis, Cis (S)-2-[(3,5-Dimethyl-4-(4′-hydroxy-3′-iso-propylbenzyl)phenoxy)methyl]-4-(3-Chlorophenyl)-2-oxo-2λ^5-[1,3,2]-dioxaphosphinane]
- TI Improvement, ED15 HR (ZDF rats; ZDF): >39
- TI Improvement, ED25 LV dP/dt (ZDF rats; ZDF): >102
- calculated TI in a non-metabolically challenged animal with respect to LV dP/dt (ZDF rats): > 10,000
- calculated TI in a non-metabolically challenged animal with respect to heart rate (ZDF rats): > 3900
- cholesterol lowering [1]: significant lowering of cholesterol
- HR, LV dP/dt and aortic pressure compared to vehicle (Sprague Dawley (SD) rat): not significantly different compared to vehicle treated animals
- heart weight and heart weight normalized to body weight (Sprague Dawley (SD) rat): no significant changes

Structure (SMILES): CC(C)c1cc(Cc2c(Cl)cc(OC[P@@]3(=O)OCC[C@@H](c4cccc(Cl)c4)O3)cc2Cl)ccc1O [Compound 13-11, Cis (S)-2-[(3,5-dichloro-4-(4′-hydroxy-3′-iso-propylbenzyl)phenoxy)methyl]-4-(3-chlorophenyl)-2-oxo-2λ^5-[1,3,2]-dioxaphosphonane]
- change in vivo at 0.5 mg/kg/day ([1]; po): -24.8%

Structure (SMILES): CCOC(=O)[C@H](C)NP(=O)(Cc1cc(Br)c(Oc2ccc(O)c(C(C)C)c2)c(Br)c1)N[C@@H](C)C(=O)OCC [Compound 15-5, di-N-(L-1-ethoxycarbonylethylamino)[3,5-dibromo-4-(4′-hydroxy-3′-iso-propylphenoxy)benzyl]phosphonamide]
- cholesterol lowering [1]: significant lowering of cholesterol

Structure (SMILES): CCOC(=O)[C@H](C)NP(=O)(COc1cc(Cl)c(Cc2ccc(O)c(C(C)C)c2)c(Cl)c1)N[C@@H](C)C(=O)OCC [Compound 15-7]
- change in vivo at 0.5 mg/kg/day ([1]; po): -29.1%

Structure (SMILES): Cc1cc(OCC(=O)O)cc(C)c1Cc1ccc(O)c(C(C)C)c1 [Compound 17, [3,5-dimethyl-4-(4′-hydroxy-3′-iso-propylbenzyl)-phenoxy]acetic acid, reference compound]
- total cholesterol at day 7 [2]: significant decrease in cholesterol
- total cholesterol at day 14 [2]: no significant decrease in cholesterol was observed
- cardiac hypertrophy (cholesterol-fed rat): Undesirable cardiac hypertrophy was observed

Structure (SMILES): Cc1cc(C(=O)CP(=O)(O)O)cc(C)c1Cc1ccc(F)c(C(C)C)c1 [Compound 41-2]
- Ki [3]: > 2 µM
- Ki [4]: > 2 µM

Structure (SMILES): Cc1cc(CCP(=O)(O)O)cc(C)c1Oc1ccc(F)c(C(C)C)c1 [Compound 42-2]
- Ki [3]: > 2 µM
- Ki [4]: > 2 µM

Structure (SMILES): COP(=O)(O)COc1cc(C)c(Cc2ccc(O)c(C(C)C)c2)c(C)c1 [Compound 69, [3,5-dimethyl-4-(4′-hydroxy-3′-iso-propylbenzyl)phenoxy]-methylphosphonic acid monomethyl ester]
- total cholesterol at day 7 [2]: cholesterol lowering effects
- total cholesterol at day 14 [2]: cholesterol lowering effects
- cardiovascular parameters (heart rate, LV dP/dt, blood pressure) [2]: no changes in any of the cardiovascular parameters

Structure (SMILES): CCOP(=O)(O)COc1cc(C)c(Cc2ccc(O)c(C(C)C)c2)c(C)c1 [Compound 69-1, [3,5-dimethyl-4-(4′-hydroxy-3′-iso-propylbenzyl)phenoxy]methylphosphonic acid monoethyl ester]
- total cholesterol at day 7 [2]: cholesterol lowering effects
- total cholesterol at day 14 [2]: cholesterol lowering effects
- cardiovascular parameters (heart rate, LV dP/dt, blood pressure) [2]: no changes in any of the cardiovascular parameters

Structure (SMILES): Cc1cc(OCP(C)(=O)O)cc(C)c1Cc1ccc(O)c(C(C)C)c1 [Compound 70, [3,5-dimethyl-4-(4′-hydroxy-3′-iso-propylbenzyl)-phenoxymethyl]methylphosphinic acid]
- total cholesterol at day 7 [2]: cholesterol lowering effects
- total cholesterol at day 14 [2]: cholesterol lowering effects
- cardiovascular parameters (heart rate, LV dP/dt, blood pressure) [2]: no changes in any of the cardiovascular parameters
